According to US20210161880A1, “METHODS FOR TREATING DEMENTIA RELATED PSYCHOSIS” (ACADIA Pharmaceuticals Inc., priority 2019, published 2021):

Key:
Type in all cases: in vivo, human
[1] = tested on: patients with dementia related psychosis; experiment: Double-blind, placebo-controlled period: relapse and all-cause discontinuation; conditions: for Hazard Ratio, relapse / Odds ratio, relapse: vs placebo
Description: (§1) A double-blind, placebo-controlled study of the efficacy and safety of pimavanserin was conducted to evaluate relapse prevention in patients with dementia related psychosis. The primary endpoint of this study was time from randomization to relapse in the double-blind period. The secondary endpoint of this study was time from randomization to discontinuation from the double-blind period for any reason.
(§2) The study consisted of a screening period of up to 4 weeks (3-28 days); an open-label period of 12 weeks; a double-blind period of up to 26 weeks; and an approximately 4-week safety follow-up period.
Randomization occurred at the double-blind Baseline visit (Week 12). Patients were randomly assigned 1:1 to continue their pimavanserin dose (34 mg or 20 mg) or matching placebo. Randomization was stratified by most likely dementia subtype or most prominent cause of dementia (Alzheimer's disease or frontotemporal dementia spectrum disorders, vascular dementia, or Parkinson's disease dementia or dementia with Lewy bodies) and by region.
Relapse criteria were assessed weekly for the first 2 weeks after randomization (Weeks 13 and 14), every 2 weeks until Week 26, and every 4 weeks through Week 38. Relapse criteria was also evaluated at unscheduled visits. Any patients who met any of the relapse criteria after randomization were withdrawn from study drug and entered the safety follow-up period of the study.

[2] = tested on: patients with dementia related psychosis; experiment: Safety and tolerability (MMSE, long-term tolerability)
Description: Safety and tolerability of pimavanserin was also evaluated compared to placebo in patients with dementia related psychosis who have been stabilized on pimavanserin therapy. Safety endpoints were: treatment-emergent adverse events (TEAEs); serious adverse events (SAEs); withdrawals due to adverse events (AEs); clinically important changes in other safety assessments; Global Clinician Assessment of Suicidality (GCAS) score; Mini-Mental State Examination (MMSE) score; and Extrapyramidal Symptom Rating Scale (ESRS) score.

[3] = tested on: patients with dementia related psychosis; experiment: Open-label period of relapse prevention study of pimavanserin; conditions: for patients meeting response criteria: ≥30% reduction on SAPS-H+D total score and CGI-I score of 1 or 2
Description: as §1
Male or female patients ≥50 and ≤90 years of age were eligible if they met the criteria for All-cause Dementia according to NIA-AA guidelines. Eligible patients met the clinical criteria for one of the following disorders, with or without cerebrovascular disease (CVD): Dementia associated with Parkinson's disease; Dementia with Lewy bodies; Possible or probable Alzheimer's disease; Frontotemporal degeneration spectrum disorders, including possible or probable behavioral variant frontotemporal dementia, progressive supranuclear palsy, or corticobasal degeneration; or Vascular dementia, including post-stroke dementia, multi-infarct dementia and/or subcortical ischemic vascular dementia (SIVD). […] In addition, eligible patients had all of the following scores at Visit 1 (Screening) and Visit 2 (open-label Baseline): SAPS-H+D total score ≥10; CGI-S ≥4 (moderately ill); and SAPS-H+D global item (H7 or D13) score ≥4 (marked). Patients with a known personal or family history or symptoms of long QT syndrome were excluded.
as §2
During the open-label period, patients started pimavanserin 34 mg once daily (QD) by mouth beginning at Week 0 (open-label Baseline). Pimavanserin was continued daily at this dose level for at least the first week of treatment. After the first week, if the patient was unable to tolerate the 34 mg dose, the dose was decreased to 20 mg (provided as two 10 mg tablets) at any study visit (scheduled or unscheduled) until Week 4 (Visit 4). If the dose was decreased to 20 mg it may later be increased to 34 mg based on investigator judgment at any study visit (scheduled or unscheduled) until Week 4 (Visit 4). After Week 4 (Visit 4), the dose of study drug remained fixed at either 34 mg or 20 mg once daily.
The response criteria was ≥30% reduction from open-label baseline on SAPS-H+D total score and CGI-I score of 1 or 2. Analysis was restricted to eligible patients at the visit. A patient was eligible for the visit if the number of days between minimum (study discontinuation date, end of treatment date) and the first open-label dose exceeded the lower limit of the analysis visit window for the visit.

[4] = open-label period, Overall N = 351

CC(C)COc1ccc(CNC(=O)N(Cc2ccc(F)cc2)C2CCN(C)CC2)cc1 [pimavanserin, N-(4-Fluorophenylmethyl)-N-(1-methylpiperidin-4-yl)-N′-(4-(2-methylpropyloxy)phenylmethyl)carbamide]
Incidence of relapse, (%) ([1]; AD): 13.1% | Incidence of relapse, n/N ([1]; AD): 8/61 | Hazard Ratio, relapse ([1]; AD): 0.618 | Odds ratio, relapse ([1]; AD): 0.5175 | Hazard Ratio (Pimavanserin/Placebo), relapse ([1]; Cox regression, 95% CI (0.172, 0.727), one-sided p 0.0023): 0.353 | Hazard Ratio (Pimavanserin/Placebo), all-cause discontinuation ([1]; Cox regression, 95% CI (0.261, 0.785), one-sided p 0.0024): 0.452 | Incidence of relapse, (%) ([1]; DLB): 0.0% | Incidence of relapse, n/N ([1]; DLB): 0/6 | Incidence of relapse, (%) ([1]; FTD): 100% | Incidence of relapse, n/N ([1]; FTD): 1/1 | Incidence of relapse, (%) ([1]; Overall): 12.6% | Incidence of relapse, n/N ([1]; Overall): 12/95 | Hazard Ratio, relapse ([1]; Overall): 0.353 | Odds ratio, relapse ([1]; Overall): 0.3666 | Incidence of relapse, (%) ([1]; PDD): 6.7% | Incidence of relapse, n/N ([1]; PDD): 1/15 | Hazard Ratio, relapse ([1]; PDD): 0.054 | Odds ratio, relapse ([1]; PDD): 0.0714 | Incidence of relapse, (%) ([1]; VaD): 16.7% | Incidence of relapse, n/N ([1]; VaD): 2/12 | Hazard Ratio, relapse ([1]; VaD): 1.065 | Odds ratio, relapse ([1]; VaD): 1.00 | reduction of risk of relapse of dementia related psychosis (psychotic exacerbation) compared to placebo ([1]; double-blind period, FIG. 6): 2.8 times | reduction of risk of all-cause discontinuation compared to placebo ([1]; double-blind period, FIG. 7): 2.2 × | Completed Week 26 Without a Relapse, (%) ([1]; double-blind period, N = 95): 38.9% | Number of Patients Discontinued for Any Reason, (%) ([1]; double-blind period, N = 95): 22.1% | Number of Patients Having a Relapse Event, (%) ([1]; double-blind period, N = 95): 12.6% | patients on placebo more likely to drop out of the trial for any reason ([1]; placebo vs pimavanserin): 2.2 times | tolerability ([2]; 34 mg, given long term in the elderly population): well tolerated | impact on cognition (MMSE) ([2]; over 9 months of treatment, FIG. 8): no negative impact | psychosis (total SAPS-H+D change), exploratory analysis ([3]; across subtypes of dementia, baseline MMSE, baseline dementia severity, FIGS. 4A-C): substantially reduced psychosis | patients meeting response criteria ([3]; by Week 4, FIG. 2A): about 50% | patients meeting response criteria ([3]; by Week 8, FIG. 2B): about 70% | total SAPS-H+D reduction in change from open-label baseline ([3]; by Week 12, FIG. 1): 75.2% | CGI-S score reduction from baseline ([3]; by Week 12, overall population and across subtypes of dementia, FIG. 5A, 5B): about 2 | response rate across subgroups ([3]; dementia subtypes, baseline MMSE, age, psychosis severity, FIG. 2C-2F): consistently high response rate | patients demonstrating sustained response ([3]; open label period): > 60% | Early Termination: Adverse Event, (%) ([3]; open-label period, AD N = 229): (7.9) % | Early Termination: Lack of Response in Open Label, (%) ([3]; open-label period, AD N = 229): (20.1) % | Randomized to Double-blind Period, (%) ([3]; open-label period, AD N = 229): (59.8) % | Early Termination: Adverse Event, (%) ([3]; open-label period, DLB N = 22): (4.5) % | Early Termination: Lack of Response in Open Label, (%) ([3]; open-label period, DLB N = 22): (40.9) % | Randomized to Double-blind Period, (%) ([3]; open-label period, DLB N = 22): (45.5) % | Early Termination: Adverse Event, (%) ([3]; open-label period, FTD N = 6): (16.7) % | Early Termination: Lack of Response in Open Label, (%) ([3]; open-label period, FTD N = 6): (33.3) % | Randomized to Double-blind Period, (%) ([3]; open-label period, FTD N = 6): (50) % | Early Termination: Adverse Event, (%) [3, 4]: (7.7) % | Early Termination: Adverse Event, Number [3, 4]: 27 | Early Termination: Death, (%) [3, 4]: (0.3) % | Early Termination: Death, Number [3, 4]: 1 | Early Termination: Lack of Response in Open Label, (%) [3, 4]: (19.9) % | Early Termination: Lack of Response in Open Label, Number [3, 4]: 70 | Randomized to Double-blind Period, (%) [3, 4]: (61.8) % | Randomized to Double-blind Period, Number [3, 4]: 217 | Early Termination: Adverse Event, (%) ([3]; open-label period, PDD N = 59): (6.8) % | Early Termination: Death, (%) ([3]; open-label period, PDD N = 59): (1.7) % | Early Termination: Lack of Response in Open Label, (%) ([3]; open-label period, PDD N = 59): (15.3) % | Randomized to Double-blind Period, (%) ([3]; open-label period, PDD N = 59): (71.2) % | Early Termination: Adverse Event, (%) ([3]; open-label period, VaD N = 35): (8.6) % | Early Termination: Lack of Response in Open Label, (%) ([3]; open-label period, VaD N = 35): (11.4) % | Randomized to Double-blind Period, (%) ([3]; open-label period, VaD N = 35): (71.4) %
